Reference: the supplement of paper PMC10307832

Assays:
Assay in all cases: relative viability (nuclei count vs DMSO), 5 days (fraction); higher = more cells survive
NCI-H1975 = tested on: NCI-H1975
Outline: (§1)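 After 5 days of treatment, lung cancer cells in 1536-well plates were fixed and stained in a single step (final 0.05% Triton X-100, 1% formaldehyde, 1 ug/ml Hoechst) and their nuclei counted on 4× images. Treatment had been applied by pin tool the day after seeding as one drug alone or as a fixed anchor-drug dose with five library-drug doses (not always all listed) in √10 steps. Relative viability is the nuclei count of treated wells divided by that of vehicle wells, and values are medians of duplicate plates.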

H3255 = tested on: H3255
Outline: as §1

NCI-H1734 = tested on: NCI-H1734
Outline: as §1

NCI-H1563 = tested on: NCI-H1563
Outline: as §1

ChaGo-K-1 = tested on: ChaGo-K-1
Outline: as §1

NCI-H1666 = tested on: NCI-H1666
Outline: as §1

NCI-H23 = tested on: NCI-H23
Outline: as §1

EKVX = tested on: EKVX
Outline: as §1

NCI-H596 = tested on: NCI-H596
Outline: as §1

HCC-366 = tested on: HCC-366
Outline: as §1

NCI-H441 = tested on: NCI-H441
Outline: as §1

COR-L 105 = tested on: COR-L 105
Outline: as §1

PC-3 [JPC-3] = tested on: PC-3 [JPC-3]
Outline: as §1

NCI-H1755 = tested on: NCI-H1755
Outline: as §1

LOU-NH91 = tested on: LOU-NH91
Outline: as §1

EMC-BAC-2 = tested on: EMC-BAC-2
Outline: as §1

A-427 = tested on: A-427
Outline: as §1

NCI-H520 = tested on: NCI-H520
Outline: as §1

NCI-H1792 = tested on: NCI-H1792
Outline: as §1

Structure (SMILES): COc1cc(N2CCC(C(N)=O)CC2)ccc1Nc1nc(N)c(Cl)c(Nc2ccccc2S(=O)(=O)C(C)C)n1 [HG-5-88-01] + CC(C)C[C@H](NC(=O)[C@H](Cc1ccccc1)NC(=O)c1cnccn1)B(O)O [Bortezomib] (partner 0.002 µM)
- relative viability (NCI-H1975; first compound 0.04 µM): 0.349
- relative viability (NCI-H1975; first compound 0.1265 µM): 0.452
- relative viability (NCI-H1975; first compound 0.4 µM): 0.381
- relative viability (NCI-H1975; first compound 1.265 µM): 0.344
- relative viability (NCI-H1975; first compound 4 µM): 0.23
- relative viability (H3255; first compound 0.04 µM): 0.748
- relative viability (H3255; first compound 0.1265 µM): 0.745
- relative viability (H3255; first compound 0.4 µM): 0.75
- relative viability (H3255; first compound 4 µM): 0.388
- relative viability (NCI-H1734; first compound 0.04 µM): 0.899
- relative viability (NCI-H1734; first compound 0.1265 µM): 0.975
- relative viability (NCI-H1734; first compound 0.4 µM): 0.958
- relative viability (NCI-H1734; first compound 1.265 µM): 0.868
- relative viability (NCI-H1734; first compound 4 µM): 0.83
- relative viability (NCI-H1563; first compound 0.04 µM): 0.827
- relative viability (NCI-H1563; first compound 0.1265 µM): 0.92
- relative viability (NCI-H1563; first compound 0.4 µM): 0.925
- relative viability (NCI-H1563; first compound 1.265 µM): 0.765
- relative viability (NCI-H1563; first compound 4 µM): 0.855
- relative viability (ChaGo-K-1; first compound 0.04 µM): 1.11
- relative viability (ChaGo-K-1; first compound 0.1265 µM): 0.983
- relative viability (ChaGo-K-1; first compound 0.4 µM): 0.976
- relative viability (ChaGo-K-1; first compound 1.265 µM): 1.02
- relative viability (ChaGo-K-1; first compound 4 µM): 0.785
- relative viability (NCI-H1666; first compound 0.04 µM): 0.944
- relative viability (NCI-H1666; first compound 0.1265 µM): 0.897
- relative viability (NCI-H1666; first compound 0.4 µM): 0.597
- relative viability (NCI-H1666; first compound 1.265 µM): 0.58
- relative viability (NCI-H1666; first compound 4 µM): 0.452
- relative viability (NCI-H23; first compound 0.04 µM): 0.954
- relative viability (NCI-H23; first compound 0.1265 µM): 1.02
- relative viability (NCI-H23; first compound 0.4 µM): 0.91
- relative viability (NCI-H23; first compound 1.265 µM): 1.12
- relative viability (NCI-H23; first compound 4 µM): 0.629
- relative viability (EKVX; first compound 0.04 µM): 1.09
- relative viability (EKVX; first compound 0.1265 µM): 1.02
- relative viability (EKVX; first compound 0.4 µM): 1.02
- relative viability (EKVX; first compound 4 µM): 0.854
- relative viability (NCI-H596; first compound 0.04 µM): 1.25
- relative viability (NCI-H596; first compound 0.1265 µM): 0.948
- relative viability (NCI-H596; first compound 0.4 µM): 1
- relative viability (NCI-H596; first compound 1.265 µM): 0.964
- relative viability (NCI-H596; first compound 4 µM): 1.02
- relative viability (HCC-366; first compound 0.04 µM): 1.11
- relative viability (HCC-366; first compound 0.1265 µM): 1.09
- relative viability (HCC-366; first compound 0.4 µM): 0.972
- relative viability (HCC-366; first compound 1.265 µM): 1.04
- relative viability (HCC-366; first compound 4 µM): 1.24
- relative viability (NCI-H441; first compound 0.04 µM): 0.579
- relative viability (NCI-H441; first compound 0.1265 µM): 0.423
- relative viability (NCI-H441; first compound 0.4 µM): 0.622
- relative viability (NCI-H441; first compound 1.265 µM): 0.558
- relative viability (NCI-H441; first compound 4 µM): 0.379
- relative viability (COR-L 105; first compound 0.04 µM): 0.875
- relative viability (COR-L 105; first compound 0.1265 µM): 0.77
- relative viability (COR-L 105; first compound 0.4 µM): 0.619
- relative viability (COR-L 105; first compound 1.265 µM): 0.375
- relative viability (COR-L 105; first compound 4 µM): 0.531
- relative viability (PC-3 [JPC-3]; first compound 0.04 µM): 0.982
- relative viability (PC-3 [JPC-3]; first compound 0.1265 µM): 0.928
- relative viability (PC-3 [JPC-3]; first compound 0.4 µM): 0.819
- relative viability (PC-3 [JPC-3]; first compound 1.265 µM): 0.849
- relative viability (PC-3 [JPC-3]; first compound 4 µM): 0.533
- relative viability (NCI-H1755; first compound 0.1265 µM): 0.911
- relative viability (NCI-H1755; first compound 0.4 µM): 0.885
- relative viability (NCI-H1755; first compound 1.265 µM): 0.92
- relative viability (NCI-H1755; first compound 4 µM): 0.975
- relative viability (LOU-NH91; first compound 0.04 µM): 0.54
- relative viability (LOU-NH91; first compound 0.1265 µM): 0.53
- relative viability (LOU-NH91; first compound 0.4 µM): 0.472
- relative viability (LOU-NH91; first compound 1.265 µM): 0.48
- relative viability (LOU-NH91; first compound 4 µM): 0.48
- relative viability (EMC-BAC-2; first compound 0.04 µM): 1.07
- relative viability (EMC-BAC-2; first compound 0.1265 µM): 1.06
- relative viability (EMC-BAC-2; first compound 0.4 µM): 1.04
- relative viability (EMC-BAC-2; first compound 1.265 µM): 1.09
- relative viability (EMC-BAC-2; first compound 4 µM): 0.931
- relative viability (A-427; first compound 0.04 µM): 0.968
- relative viability (A-427; first compound 0.1265 µM): 0.955
- relative viability (A-427; first compound 0.4 µM): 1.01
- relative viability (A-427; first compound 1.265 µM): 1.05
- relative viability (A-427; first compound 4 µM): 0.804
- relative viability (NCI-H520; first compound 0.04 µM): 0.45
- relative viability (NCI-H520; first compound 0.1265 µM): 0.633
- relative viability (NCI-H520; first compound 0.4 µM): 0.304
- relative viability (NCI-H520; first compound 1.265 µM): 0.698
- relative viability (NCI-H520; first compound 4 µM): 0.546
- relative viability (NCI-H1792; first compound 0.04 µM): 0.975
- relative viability (NCI-H1792; first compound 0.1265 µM): 0.929
- relative viability (NCI-H1792; first compound 0.4 µM): 0.941
- relative viability (NCI-H1792; first compound 1.265 µM): 0.817
- relative viability (NCI-H1792; first compound 4 µM): 0.958
